In general, IC50 refers to the concentration that gives 50% inhibition.

The structures appear in SMILES notation. Where only a bound is given, the exact number is not on record here.

From patent US20070066672A1, “Benzimidazole derivatives and use thereof as peptide deformylase inhibitors” (Arpida A/S, priority 2003, published 2007) come the findings set out here.

The target of experiment [1] is T1, Peptide Deformylase (PDF) (Staphylococcus aureus, UniProt P68826).
T1 construct: made in house
T1 sequence (P68826 1-183): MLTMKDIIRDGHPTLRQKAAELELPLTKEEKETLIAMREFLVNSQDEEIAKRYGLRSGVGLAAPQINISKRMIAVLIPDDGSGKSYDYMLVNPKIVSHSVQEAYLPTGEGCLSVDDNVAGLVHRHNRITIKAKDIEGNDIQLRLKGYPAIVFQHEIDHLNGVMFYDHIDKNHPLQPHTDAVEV
Kind of experiment: Bacterial peptide deformylase (PDF) assay, colorimetric cell free, enzyme from S. aureus. Format: biochemical. As to conditions: f-Met-Ala substrate, TNBS detection at 420 nm. The text has this:
(§1) To find inhibitors of Peptide Deformylase (PDF), a colorimetric cell free assay for measuring the enzymatic activity of PDF has been adapted to the microtiter plate format (96 wells). The assay comprises three components, purified PDF, f-Met-Ala as substrate and TNBS as the detecting agent of primary amino groups. The resulting TNP_NH-Met-Ala sulfite complex can be detected at 420 nm. PDF enzymes, containing Fe^2+ as the native metal, are purified and are stabilized by the addition of tris(2-carboxyethyl)phosphine (TCEP).
(§2) The IC50 value of a compound of the invention as a bacterial PDF inhibitor was determined using the following assay.
(§3) Assay buffer 0.1 M MOPS pH was adjusted to 7.2 with NaOH, containing 0.25 M NaCl, 100 μg/mL catalase and 1 mg/mL BSA.
(§4) E. coli enzyme (2.5 mg/ml) 10 μl+290 μl Assay buffer, 1 μl per ml enzyme mix. S. aureus (15 mg/ml) 10 μl+990 μl Assay buffer, 0.3 μl per ml enzyme mix.
(§5) Substrate mix: 10 mM f-Met-Ala was made up from 200 mM f-Met-Ala in methanol with assay buffer.
(§6) TNBS solution: Freshly dilute 1 M TNBS stock solution diluted 1:10 with water.
(§7) Buffer C: 0.5 M borate buffer adjusted to pH 9.5 with NaOH.
(§8) Buffer D: 0.2 ml of freshly prepared 0.5 M Na2SO3 was mixed with 9.8 mL of 0.5M NaH2PO4.
(§9) Inhibitor solution: 2 mM Sodium 4-(hydroxymercurio)benzoate in assay buffer.
(§10) Compound mix: Compound of formula I dissolved in DMSO in a 10 mg/mL stock solution. Further dilutions were made in DMSO in the concentration range between 0.05 to 100 mM.
(§11) The assay was performed in a 96 Microtiter plate containing test compound. To each well containing test compound mix was added 75 microliter of enzyme mix from E. coli followed by the addition of 25 microliter of substrate mix. The resulting mix was incubated for 30 minutes at room temperature with shaking. TNBS solution (50 microliter/well) was added and the resulting mixture was incubated for 15 minutes under shaking. Buffer C was then added (20 microliter/well). After incubating at room temperature for 15 minutes under shaking, buffer D was added (50 microliter/well). The optical […] was then measured at 420 nm, thereby determining the IC50 value.
The assay was repeated using enzyme mix from S. aureus.

For experiment [2], the target named is T2, Peptide Deformylase (PDF) (Escherichia coli, UniProt P0A6K3).
T2 construct: made in house
Description: Bacterial peptide deformylase (PDF) assay, colorimetric cell free, enzyme from E. coli. Format: biochemical.
From the text: as §1, §2, §3, §4, §5, §6, §7, §8, §9, §10, §11

T2 sequence (P0A6K3 whole entry): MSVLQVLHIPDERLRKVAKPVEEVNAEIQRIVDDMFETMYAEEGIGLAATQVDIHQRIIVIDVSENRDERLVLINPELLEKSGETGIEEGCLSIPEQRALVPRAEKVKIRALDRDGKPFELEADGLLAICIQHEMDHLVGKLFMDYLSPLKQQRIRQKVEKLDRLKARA

For the compound `CCCCn1c(C(Cc2ccccc2)NC(=O)CCC(=O)NO)nc2cc(C(=O)NCC(=O)OC)ccc21` (stereo not shown) [Example 47, ({1-Butyl-2-[1-(3-hydroxycarbamoyl-propionylamino)-2-phenyl-ethyl]-1H-benzoimidazole-5-carbonyl}-amino)-acetic acid methyl ester], the 50% inhibitory concentration (IC50) came out at 0.019 µM in experiment [1] and 5.3 µM in experiment [2].
As for `COC(=O)CNC(=O)c1ccc2c(c1)nc(C(CC(C)C)NC(=O)CCC(=O)O)n2Cc1ccccc1` (stereo not shown) [Example 15, N-{1-[1-Benzyl-5-(methoxycarbonylmethyl-carbamoyl)-1H-benzoimidazol-2-yl]-3-methyl-butyl}-succinamic acid], the 50% inhibitory concentration (IC50) in experiment [1] is 4 µM; in experiment [2], 3.3 µM.
Taken in the same sequence, the figures for `COC(=O)CNC(=O)c1ccc2c(c1)nc(C(Cc1ccccc1)NC(=O)CCS)n2Cc1ccc(Cl)cc1` (stereo not shown) [Example 2, ({1-(4-Chloro-benzyl)-2-[1-(3-mercapto-propionylamino)-2-phenyl-ethyl]-1H-benzoimidazole-5-carbonyl}-amino)-acetic acid methyl ester] were 6.1 µM and 22.1 µM.
The like results for `COC(=O)CNC(=O)c1ccc2c(c1)nc(C(Cc1ccc(O)cc1)NC(=O)CCS)n2C1CC1` (stereo not shown) [Example 20, ({1-Cyclopropyl-2-[2-(4-hydroxy-phenyl)-1-(3-mercapto-propionylamino)-ethyl]-1H-benzoimidazole-5-carbonyl}-amino)-acetic acid methyl ester] were, in that order, above 200 µM and above 200 µM.
Taken in the same sequence, the figures for `COC(=O)CNC(=O)c1ccc2c(c1)nc(C(Cc1ccc(O)cc1)NC(=O)CCS)n2CC1CCCCC1` (stereo not shown) [Example 21, ({1-Cyclohexylmethyl-2-[2-(4-hydroxy-phenyl)-1-(3-mercapto-propionylamino)-ethyl]-1H-benzoimidazole-5-carbonyl}-amino)-acetic acid methyl ester] were above 200 µM and above 200 µM.
`CCCCn1c(C(CC(C)C)NC(=O)CCC(=O)O)nc2cc(C(=O)NCC(=O)OC)ccc21` (stereo not shown) [Example 14, N-{1-[1-Butyl-5-(methoxycarbonylmethyl-carbamoyl)-1H-benzoimidazol-2-yl]-3-methyl-butyl}-succinamic acid]: the IC50 in experiment [1] was 2.6 µM; in experiment [2], 7.3 µM.
The like results for `CCC(NC(=O)CCC(=O)NO)c1nc2cc(C(=O)NCC(=O)OC)ccc2n1Cc1ccccc1` (stereo not shown) [Example 32, ({1-Benzyl-2-[1-(3-hydroxycarbamoyl-propionylamino)-propyl]-1H-benzoimidazole-5-carbonyl}-amino)-acetic acid methyl ester] were, in that order, 0.067 µM and 0.045 µM.
The like results for `CCC(NC(=O)CCS)c1nc2cc(C(=O)NCC(=O)OC)ccc2n1C1CC1` (stereo not shown) [Example 1, ({1-Cyclopropyl-2-[1-(3-mercapto-propionylamino)-propyl]-1H-benzoimidazole-5-carbonyl}-amino)-acetic acid methyl ester] were, in that order, 45.4 µM and 65 µM.
Regarding `CCCCn1c(C(Cc2ccccc2)NC(=O)CCC(=O)O)nc2cc(C(=O)NCC(=O)OC)ccc21` (stereo not shown) [Example 4, N-{1-[1-Butyl-5-(methoxycarbonylmethyl-carbamoyl)-1H-benzoimidazol-2-yl]-2-phenyl-ethyl}-succinamic acid], the IC50 in experiment [1] was 1 µM; in experiment [2], 2.8 µM.
The like results for `COC(=O)CNC(=O)c1ccc2c(c1)nc(C(Cc1ccccc1)NC(=O)CCC(=O)NO)n2CCN` (stereo not shown) [Example 56, ({1-(2-Amino-ethyl)-2-[1-(3-hydroxycarbamoyl-propionylamino)-2-phenyl-ethyl]-1H-benzoimidazole-5-carbonyl}-amino)-acetic acid methyl ester] were, in that order, 1.6 µM and 2 µM.
Taken in the same sequence, the figures for `COC(=O)CNC(=O)c1ccc2c(c1)nc(C(CCc1ccccc1)NC(=O)CCC(=O)O)n2CC1CCCCC1` (stereo not shown) [Example 8, N-{1-[1-Cyclohexylmethyl-5-(methoxycarbonylmethyl-carbamoyl)-1H-benzoimidazol-2-yl]-3-phenyl-propyl}-succinamic acid] were 15.1 µM and 29.8 µM.
With `COC(=O)CNC(=O)c1ccc2c(c1)nc(C(CCCCN)NC(=O)CCC(=O)O)n2CC1CCCCC1` (stereo not shown) [Example 24, N-{5-Amino-1-[1-cyclohexylmethyl-5-(methoxycarbonylmethyl-carbamoyl)-1H-benzoimidazol-2-yl]-pentyl}-succinamic acid], the IC50 came out at 1.4 µM in experiment [1] and 13.1 µM in experiment [2].
As for `COC(=O)CNC(=O)c1ccc2c(c1)nc(C(Cc1cccc3ccccc13)NC(=O)CCC(=O)O)n2CCc1cccs1` (stereo not shown) [Example 17, N-{1-[5-(Methoxycarbonylmethyl-carbamoyl)-1-(2-thiophen-2-yl-ethyl)-1H-benzoimidazol-2-yl]-2-naphthalen-1-yl-ethyl}-succinamic acid], the IC50 in experiment [1] came to 0.099 µM; in experiment [2], 0.071 µM.
Regarding `COC(=O)CNC(=O)c1ccc2c(c1)nc(C(Cc1ccccc1)NC(=O)CCS)n2CCO` (stereo not shown) [Example 22, ({1-(2-Hydroxy-ethyl)-2-[1-(3-mercapto-propionylamino)-2-phenyl-ethyl]-1H-benzoimidazole-5-carbonyl}-amino)-acetic acid methyl ester], the IC50 in experiment [1] and in experiment [2] was above 200 µM in each case.
Take `COC(=O)CNC(=O)c1ccc2c(c1)nc(C(Cc1ccc(O)cc1)NC(=O)CCC(=O)O)n2CC1CCCCC1` (stereo not shown) [Example 26, N-[1-[1-Cyclohexylmethyl-5-(methoxycarbonylmethyl-carbamoyl)-1H-benzoimidazol-2-yl]-2-(4-hydroxyphenyl)-ethyl]-succinamic acid]: the 50% inhibitory concentration (IC50) in experiment [1] is 25 µM; in experiment [2], 35.2 µM.
The like results for `COC(=O)CNC(=O)c1ccc2c(c1)nc(C(CC(C)C)NC(=O)CCC(=O)O)n2CCO` (stereo not shown) [Example 28, N-{1-[1-(2-Hydroxy-ethyl)-5-(methoxycarbonylmethyl-carbamoyl)-1H-benzoimidazol-2-yl]-3-methylbutyl}-succinamic acid] were, in that order, 34.4 µM and above 200 µM.
On to `COC(=O)CNC(=O)c1ccc2c(c1)nc(C(Cc1ccccc1)NC(=O)CCS)n2CCN` (stereo not shown) [Example 50, ({1-(2-Amino-ethyl)-2-[1-(3-mercapto-propionylamino)-2-phenyl-ethyl]-1H-benzoimidazole-5-carbonyl}-amino)-acetic acid methyl ester], for which the 50% inhibitory concentration (IC50) amounted to 3.8 µM in experiment [1] and 7.2 µM in experiment [2].
On to `COC(=O)CNC(=O)c1ccc2c(c1)nc(C(Cc1ccccc1)NC(=O)CCC(=O)O)n2Cc1ccco1` (stereo not shown) [Example 5, N-{1-[1-Furan-2-ylmethyl-5-(methoxycarbonylmethyl-carbamoyl)-1H-benzoimidazol-2-yl]-2-phenyl-ethyl}-succinamic acid], for which the IC50 in experiment [1] was found to be 1.6 µM; in experiment [2] it was 12.9 µM.
The like results for `CCC(NC(=O)CCC(=O)O)c1nc2cc(C(=O)NCC(=O)OC)ccc2n1C1CC1` (stereo not shown) [Example 10, N-{1-[1-Cyclopropyl-5-(methoxycarbonylmethyl-carbamoyl)-1H-benzoimidazol-2-yl]-propyl}-succinamic acid] were, in that order, 0.023 µM and 5.6 µM.
The like results for `COC(=O)CNC(=O)c1ccc2c(c1)nc(C(CCc1ccccc1)NC(=O)CCC(=O)O)n2C1CC1` (stereo not shown) [Example 7, N-{1-[1-Cyclopropyl-5-(methoxycarbonylmethyl-carbamoyl)-1H-benzoimidazol-2-yl]-3-phenyl-propyl}-succinamic acid] were, in that order, 2.7 µM and 2.6 µM.
